Test results reported in patent US9113629B2, “4-amino-6-(4-substituted-phenyl)-picolinates and 6-amino-2-(4-substituted-phenyl)-pyrimidine-4-carboxylates and their use as herbicides” (DOW AGROSCIENCES LLC, priority 2013, dated 2015).
Like-named read-outs stand apart in the source and are kept apart here.

Key:
[1] = system: Key Grass and Sedge Weeds as well as Grass Crops; experiment: Post-emergent Test II herbicidal activity (Table 6); format: in vivo; settings: post-emergence, 336 h; for pest or weed control at 70 g/ha: application rate 70 g ai/ha; for pest or weed control at 140 g/ha: application rate 140 g ai/ha
Description: (§1) Post-emergent Test II: Seeds or nutlets of the desired test plant species were planted in Sun Gro Metro-Mix® 360 planting mixture, which typically has a pH of 6.0 to 6.8 and an organic matter content of about 30 percent, in plastic pots with a surface area of 64 square centimeters. When required to ensure good germination and healthy plants, a fungicide treatment and/or other chemical or physical treatment was applied. The plants were grown for 7-21 d in a greenhouse with an approximate 15 h photoperiod which was maintained at about 23-29° C. during the day and 22-28° C. during the night. Nutrients and water were added on a regular basis and supplemental lighting was provided with overhead metal halide 1000-Watt lamps as necessary. The plants were employed for testing when they reached the first or second true leaf stage.
(§2) A weighed amount, determined by the highest rate to be tested, of each test compound was placed in a 25 mL glass vial and was dissolved in 4 mL of a 97:3 v/v mixture of acetone and DMSO to obtain concentrated stock solutions. […] The concentrated stock solutions obtained were diluted with 20 mL of an aqueous mixture containing acetone, water, isopropyl alcohol, DMSO. Atplus 411F crop oil concentrate, and Triton® X-155 surfactant in a 48.5:39:10:1.5:1.0:0.02 v/v ratio to obtain spray solutions containing the highest application rates. Additional application rates were obtained by serial dilution of 12 mL of the high rate solution into a solution containing 2 mL of 97:3 v/v mixture of acetone and DMSO and 10 mL of an aqueous mixture containing acetone, water, isopropyl alcohol, DMSO, Atplus 411F crop oil concentrate, and Triton X-155 surfactant in a 48.5:39:10:1.5:1.0:0.02 v/v ratio to obtain ½×, ¼×, ⅛× and 1/16× rates of the high rate. Compound requirements are based upon a 12 mL application volume at a rate of 187 liters per hectare (L/ha). Formulated compounds were applied to the plant material with an overhead Mandel track sprayer equipped with 8002E nozzles calibrated to deliver 187 L/ha over an application area of 0.503 square meters at a spray height of 18 inches (43 cm) above the average plant canopy height. Control plants were sprayed in the same manner with the solvent blank.
(§3) The treated plants and control plants were placed in a greenhouse as described above and watered by subirrigation to prevent wash-off of the test compounds. After 14 d, the condition of the test plants as compared with that of the untreated plants was determined visually and scored on a scale of 0 to 100 percent where 0 corresponds to no injury and 100 corresponds to complete kill.

[2] = system: Key Broadleaf Weed and Crop Species; experiment: Post-emergent Test II herbicidal activity (Table 5); format: in vivo; settings: post-emergence, 336 h, 14 days after application; for pest or weed control at 70 g/ha: application rate 70 g ai/ha
Description: as §1, §2, §3

[3] = Triticum aestivum, TRZSS (wheat), read-out: Visual Growth Reduction (%) 14 Days After Application, TRZSS
[4] = CYPES: yellow nutsedge (Cyperus esculentus), read-out: Visual Growth Reduction (%) 14 Days After Application, CYPES
[5] = DIGSA: crabgrass (Digitaria sanguinalis), read-out: Visual Growth Reduction (%) 14 Days After Application, DIGSA
[6] = ORYSA: rice (Oryza sativa), read-out: Visual Growth Reduction (%) 14 Days After Application, ORYSA
[7] = SORVU: grain sorghum (Sorghum vulgare), read-out: Visual Growth Reduction (%) 14 Days After Application, SORVU
[8] = ZEAMX: maize, corn (Zea mays), read-out: Visual Growth Reduction (%) 14 Days After Application, ZEAMX
[9] = ABUTH: velvetleaf (Abutilon theophrasti), read-out: Visual Growth Reduction (%) 14 Days After Application, ABUTH
[10] = ABUTH: velvetleaf (Abutilon theophrasti), application rate 140 g ai/ha, read-out: Visual Growth Reduction (%) 14 Days After Application, ABUTH
[11] = AMARE: redroot pigweed (Amaranthus retroflexus), read-out: Visual Growth Reduction (%) 14 Days After Application, AMARE
[12] = AMARE: redroot pigweed (Amaranthus retroflexus), application rate 140 g ai/ha, read-out: Visual Growth Reduction (%) 14 Days After Application, AMARE
[13] = BRSNN: oilseed-rape, canola (Brassica napus), read-out: Visual Growth Reduction (%) 14 Days After Application, BRSNN
[14] = BRSNN: oilseed-rape, canola (Brassica napus), application rate 140 g ai/ha, read-out: Visual Growth Reduction (%) 14 Days After Application, BRSNN
[15] = CHEAL: lambsquarters (Chenopodium album), read-out: Visual Growth Reduction (%) 14 Days After Application, CHEAL
[16] = CHEAL: lambsquarters (Chenopodium album), application rate 140 g ai/ha, read-out: Visual Growth Reduction (%) 14 Days After Application, CHEAL
[17] = EPHHL: wild poinsettia (Euphorbia heterophylla), read-out: Visual Growth Reduction (%) 14 Days After Application, EPHHL
[18] = EPHHL: wild poinsettia (Euphorbia heterophylla), application rate 140 g ai/ha, read-out: Visual Growth Reduction (%) 14 Days After Application, EPHHL
[19] = HELAN: sunflower (Helianthus annuus), read-out: Visual Growth Reduction (%) 14 Days After Application, HELAN
[20] = HELAN: sunflower (Helianthus annuus), application rate 140 g ai/ha, read-out: Visual Growth Reduction (%) 14 Days After Application, HELAN
[21] = VIOTR: wild pansy (Viola tricolor), read-out: Visual Growth Reduction (%) 14 Days After Application, VIOTR
[22] = VIOTR: wild pansy (Viola tricolor), application rate 140 g ai/ha, read-out: Visual Growth Reduction (%) 14 Days After Application, VIOTR
[23] = ECHCG: barnyardgrass (Echinochloa crus-galli), read-out: Visual Growth Reduction (%) 14 Days After Application, ECHCG
[24] = SETFA: giant foxtail (Setaria faberi), read-out: Visual Growth Reduction (%) 14 Days After Application, SETFA
[25] = ABUTH: velvetleaf (Abutilon theophrasti), 140 g ai/ha, post-emergent, read-out: Visual Growth Reduction (%) 14 Days After Application ABUTH
[26] = AMARE: redroot pigweed (Amaranthus retroflexus), 140 g ai/ha, post-emergent, read-out: Visual Growth Reduction (%) 14 Days After Application AMARE
[27] = BRSNN: oilseed-rape, canola (Brassica napus), 140 g ai/ha, post-emergent, read-out: Visual Growth Reduction (%) 14 Days After Application BRSNN
[28] = CHEAL: lambsquarters (Chenopodium album), 140 g ai/ha, post-emergent, read-out: Visual Growth Reduction (%) 14 Days After Application CHEAL
[29] = EPHHL: wild poinsettia (Euphorbia heterophylla), 140 g ai/ha, post-emergent, read-out: Visual Growth Reduction (%) 14 Days After Application EPHHL
[30] = HELAN: sunflower (Helianthus annuus), 140 g ai/ha, post-emergent, read-out: Visual Growth Reduction (%) 14 Days After Application HELAN
[31] = VIOTR: wild pansy (Viola tricolor), 140 g ai/ha, post-emergent, read-out: Visual Growth Reduction (%) 14 Days After Application VIOTR

melting point	Structure (SMILES)	pest or weed control at 70 g/ha [1, 3]	pest or weed control at 140 g/ha [1, 3]	pest or weed control at 70 g/ha [1, 4]	pest or weed control at 140 g/ha [1, 4]	pest or weed control at 70 g/ha [1, 5]	pest or weed control at 140 g/ha [1, 5]	pest or weed control at 70 g/ha [1, 6]	pest or weed control at 140 g/ha [1, 6]	pest or weed control at 70 g/ha [1, 7]	pest or weed control at 140 g/ha [1, 7]	pest or weed control at 70 g/ha [1, 8]	pest or weed control at 140 g/ha [1, 8]	pest or weed control at 70 g/ha [2, 9]	pest or weed control at 140 g/ha [2, 10]	pest or weed control at 70 g/ha [2, 11]	pest or weed control at 140 g/ha [2, 12]	pest or weed control at 70 g/ha [2, 13]	pest or weed control at 140 g/ha [2, 14]	pest or weed control at 70 g/ha [2, 15]	other results
147 to 149 °C	Nc1c(F)c(-c2ccc(OC(F)F)c(F)c2)nc(C(=O)O)c1Cl [Compound 92, 4-amino-3-chloro-6-(4-(difluoromethoxy)-3-fluorophenyl)-5-fluoropicolinic acid]	30 to 44%	45 to 59%	0 to 29%	0 to 29%	60 to 74%	60 to 74%	0 to 29%	0 to 29%	30 to 44%	45 to 59%	60 to 74%	60 to 74%	0 to 29%	0 to 29%	45 to 59%	60 to 74%	30 to 44%	45 to 59%	85 to 94%	pest or weed control at 140 g/ha [2, 16]: 85 to 94%; pest or weed control at 70 g/ha [2, 17]: 95 to 100%; pest or weed control at 140 g/ha [2, 18]: 95 to 100%; pest or weed control at 70 g/ha [2, 19]: 60 to 74%; pest or weed control at 140 g/ha [2, 20]: 75 to 84%; pest or weed control at 70 g/ha [2, 21]: 0 to 29%; pest or weed control at 140 g/ha [2, 22]: 0 to 29%
149 to 151 °C	Nc1c(F)c(-c2ccc(OC(F)F)cc2F)nc(C(=O)O)c1Cl [Compound 140]	0 to 29%	0 to 29%	0 to 29%	0 to 29%	0 to 29%	0 to 29%	0 to 29%	0 to 29%	0 to 29%	0 to 29%	0 to 29%	0 to 29%	0 to 29%	0 to 29%	0 to 29%	0 to 29%	0 to 29%	0 to 29%	0 to 29%	pest or weed control at 140 g/ha [2, 16]: 0 to 29%; pest or weed control at 70 g/ha [2, 17]: 85 to 94%; pest or weed control at 140 g/ha [2, 18]: 85 to 94%; pest or weed control at 70 g/ha [2, 19]: 60 to 74%; pest or weed control at 140 g/ha [2, 20]: 75 to 84%; pest or weed control at 70 g/ha [2, 21]: 0 to 29%; pest or weed control at 140 g/ha [2, 22]: 0 to 29%
185.1 to 186.9 °C	COC(=O)c1nc(-c2ccc(C#N)cc2)nc(N)c1OC [Compound 130]		0 to 29%		0 to 29%		0 to 29%		0 to 29%		0 to 29%		0 to 29%								pest or weed control at 140 g/ha [1, 23]: 0 to 29%; pest or weed control at 140 g/ha [1, 24]: 0 to 29%; pest or weed control at 140 g/ha [2, 25]: 0 to 29%; pest or weed control at 140 g/ha [2, 26]: 0 to 29%; pest or weed control at 140 g/ha [2, 27]: 0 to 29%; pest or weed control at 140 g/ha [2, 28]: 0 to 29%; pest or weed control at 140 g/ha [2, 29]: 95 to 100%; pest or weed control at 140 g/ha [2, 30]: 85 to 94%; pest or weed control at 140 g/ha [2, 31]: 0 to 29%
133.4 to 134.8 °C	COC(=O)c1nc(-c2ccc(C#N)cc2)c(Cl)c(N)c1Cl [Compound 1]		0 to 29%		30 to 44%		0 to 29%		0 to 29%		0 to 29%		0 to 29%								pest or weed control at 140 g/ha [1, 23]: 0 to 29%; pest or weed control at 140 g/ha [1, 24]: 0 to 29%; pest or weed control at 140 g/ha [2, 25]: 60 to 74%; pest or weed control at 140 g/ha [2, 26]: 60 to 74%; pest or weed control at 140 g/ha [2, 27]: 0 to 29%; pest or weed control at 140 g/ha [2, 28]: 85 to 94%; pest or weed control at 140 g/ha [2, 29]: 0 to 29%; pest or weed control at 140 g/ha [2, 30]: 95 to 100%; pest or weed control at 140 g/ha [2, 31]: 0 to 29%
